Where two headings read alike, the source gives them in different places.
Assay: Phase 1 first-in-human study, plasma pharmacokinetics
Format: in vivo
Conditions: for Tmax / Cmax / AUC(0-t) / half-life / AUC(0-inf): plasma
Description: Safety, tolerability, PK, and BTKO were assessed for six doses of compound of Formula (III) oral solution (4, 12, 36, 100, 200, 400 mg) in participants under fasted conditions. The SAD part comprised 10 cohorts of 8 participants each (FIG. 1). In each cohort receiving compound of Formula (III) oral solution (Cohorts 1-9), 6 participants were randomized to receive compound of Formula (III) and 2 to receive placebo. All participants in Cohort 10 received compound of Formula (III) as an oral capsule. All 10 cohorts included 2 sentinel participants who were dosed ˜24 hours prior to the rest of the cohort. In cohorts receiving compound of Formula (III) oral solution, 1 sentinel participant received compound of Formula (III) and the other received placebo.
Six male escalating dose cohorts received a single oral dose of 4, 12, 36, 100, 200, 400 mg compound of Formula (III) or placebo solution under fasted conditions. Gender effects were assessed in 2 female cohorts whose participants received either a 36 or 100 mg dose of compound of Formula (III) or placebo as an oral solution under fasted conditions. Food effects were evaluated in a male cohort receiving compound of Formula (III) 100 mg or placebo as an oral solution after a high-fat breakfast.
Safety, tolerability, and PK of a solid dose formulation of compound of Formula (III) were assessed in an additional male cohort (Cohort 10) that received 3×35 mg (105 mg) of compound of Formula (III) in the fasted state. Since all the participants received the same dose of compound of Formula (III), this cohort was not blinded.
Safety, tolerability, PK, and BTKO following multiple compound of Formula (III) doses were evaluated in 3 dose escalation cohorts with a total of 18 participants (males: 9, females: 9) receiving active study drug. In each cohort, 3 males and 3 females were randomized to receive 36 mg once-daily (QD), 100 mg QD, or 200 mg QD compound of Formula (III) oral solution and 3 participants (males: 2; female: 1) to receive placebo. Two male participants in each cohort served as sentinel participants: one received compound of Formula (III) and other received placebo ˜48 hours prior to other participants in the cohort. All safety and tolerability data (through the follow-up visit), PK data (through at least 24 hours after last dose administration), and all available PD data were reviewed from each cohort before a decision was made to dose escalate.
Sample collection—For the PK assessment of compound of Formula (III), venous blood samples (2 to 4 mL each) were collected predose and at 15 min, 0.5, 1, 1.5, 2, 2.5, 3, 4, 6, 8, 12, 24, 36, 48, and 72 hours post-dose in Part 1. In Part 2, samples were collected predose and at 15 min, 0.5, 1, 1.5, 2, 2.5, 3, 4, 6, 8, 12 hours post-dose on day 1, predose and 1 hour post-dose on days 2-9, and predose and at 15 min, 0.5, 1, 1.5, 2, 2.5, 3, 4, 6, 8, 12, 24, 48, and 72 hours after the last dose on day 10. Plasma samples were analyzed to determine concentrations of compound of Formula (III) using a scientific validated, specific, and sensitive liquid chromatography-mass spectrometry (LC-MS/MS) method.
The PK analysis for the compound of Formula (III) samples was performed using a non-compartmental method with validated Phoenix® WinNonlin® (version 8.0, Certara L.P.).

[1] = 36 mg QD oral solution, fed, Day 10
[2] = 100 mg QD oral solution, fed, Day 10
[3] = 200 mg QD oral solution, fed, Day 10
[4] = female, human, po, 36 mg, single 36 mg oral solution, female fasted
[5] = female, human, po, 100 mg, single 100 mg oral solution, female fasted
[6] = male, human, po, 4 mg, single 4 mg oral solution, male fasted
[7] = male, human, po, 12 mg, single 12 mg oral solution, male fasted

## C=CC(=O)N[C@H]1CCC[C@H]1NC(=O)c1sc2nccc3c2c1NC(=O)N3c1cnc(CC(C)C)cc1C (atropisomer, axis not shown) [compound of Formula (III), N-((1R,2S)-2-Acrylamidocyclopentyl)-5-(S)-(6-isobutyl-4-methylpyridin-3-yl)-4-oxo-4,5-dihydro-3H-1-thia-3,5,8-triazaacenaphthylene-2-carboxamide]
[1]
  ARCmax: 1.04
  Cmin: 0.000552 µg/mL
[2]
  ARCmax: 0.968
  Cmin: 0.00151 µg/mL
105 mg capsule vs 100 mg solution
  mean Cmax/Dose lower, capsule vs oral solution: approximately 64%
200 mg QD oral solution, fed, Day 1
  Ae% dose: 0.234
[3]
  ARCmax: 1.21
  Ae% dose: 0.234
  CLR: 0.186 L/h
  Cmin: 0.00496 µg/mL
Both sexes, human, oral, Part 2, day 1, 36-200 mg QD, read-out: median tmax across doses
  Tmax: 1.25 to 1.77 h
Both sexes, human, po, 36 mg, 36 mg QD oral solution, fed, Day 1
  Cmax: 0.193 µg/mL
Both sexes, human, po, 36 mg, 36 mg QD oral solution, fed, Day 1, read-out: AUC0-24 h
  AUC(0-t): 0.925 µg·h/mL
Both sexes, human, po, 36 mg, 36 mg QD oral solution, fed, Day 1, read-out: tmax, median (min-max)
  Tmax: 1.5 h
Both sexes, human, po, 36 mg, 36 mg QD oral solution, fed, Day 10
  Cmax: 0.199 µg/mL
Both sexes, human, po, 36 mg, 36 mg QD oral solution, fed, Day 10, read-out: AUC0-24 h
  AUC(0-t): 0.889 µg·h/mL
Both sexes, human, po, 36 mg, 36 mg QD oral solution, fed, Day 10, read-out: t1/2, dom (converted)
  half-life: 1.5 h
Both sexes, human, po, 36 mg, 36 mg QD oral solution, fed, Day 10, read-out: t1/2, λz (converted)
  half-life: 4.9 h
Both sexes, human, po, 36 mg, 36 mg QD oral solution, fed, Day 10, read-out: tmax, median (min-max)
  Tmax: 2 h
Both sexes, human, po, 100 mg, 100 mg QD oral solution, fed, Day 1
  Cmax: 0.464 µg/mL
Both sexes, human, po, 100 mg, 100 mg QD oral solution, fed, Day 1, read-out: AUC0-24 h
  AUC(0-t): 1.82 µg·h/mL
Both sexes, human, po, 100 mg, 100 mg QD oral solution, fed, Day 1, read-out: tmax, median (min-max)
  Tmax: 1.25 h
Both sexes, human, po, 100 mg, 100 mg QD oral solution, fed, Day 10
  Cmax: 0.424 µg/mL
Both sexes, human, po, 100 mg, 100 mg QD oral solution, fed, Day 10, read-out: AUC0-24 h
  AUC(0-t): 1.69 µg·h/mL
Both sexes, human, po, 100 mg, 100 mg QD oral solution, fed, Day 10, read-out: t1/2, dom (converted)
  half-life: 1.8 h
Both sexes, human, po, 100 mg, 100 mg QD oral solution, fed, Day 10, read-out: t1/2, λz (converted)
  half-life: 9.6 h
Both sexes, human, po, 100 mg, 100 mg QD oral solution, fed, Day 10, read-out: tmax, median (min-max)
  Tmax: 1.53 h
Both sexes, human, po, 200 mg, 200 mg QD oral solution, fed, Day 1
  Cmax: 0.719 µg/mL
Both sexes, human, po, 200 mg, 200 mg QD oral solution, fed, Day 1, read-out: AUC0-24 h
  AUC(0-t): 2.56 µg·h/mL
Both sexes, human, po, 200 mg, 200 mg QD oral solution, fed, Day 1, read-out: tmax, median (min-max)
  Tmax: 1.77 h
Both sexes, human, po, 200 mg, 200 mg QD oral solution, fed, Day 10
  Cmax: 0.839 µg/mL
Both sexes, human, po, 200 mg, 200 mg QD oral solution, fed, Day 10, read-out: AUC0-24 h
  AUC(0-t): 3.16 µg·h/mL
Both sexes, human, po, 200 mg, 200 mg QD oral solution, fed, Day 10, read-out: t1/2, dom (converted)
  half-life: 1.9 h
Both sexes, human, po, 200 mg, 200 mg QD oral solution, fed, Day 10, read-out: t1/2, λz (converted)
  half-life: 23.1 h
Both sexes, human, po, 200 mg, 200 mg QD oral solution, fed, Day 10, read-out: tmax, median (min-max)
  Tmax: 2 h
Both sexes, human, urine and plasma, 200 mg QD oral solution, fed, Day 1
  CL renal: 3.1 mL/min
[4]
  AUC(0-inf): 0.0227 µg·h/mL
  Cmax: 0.233 µg/mL
female, human, po, 36 mg, single 36 mg oral solution, female fasted, read-out: AUC0-24 h
  AUC(0-t): 0.819 µg·h/mL
female, human, po, 36 mg, single 36 mg oral solution, female fasted, read-out: AUClast
  AUC(0-t): 0.816 µg·h/mL
female, human, po, 36 mg, single 36 mg oral solution, female fasted, read-out: t1/2, dom (converted)
  half-life: 1.6 h
female, human, po, 36 mg, single 36 mg oral solution, female fasted, read-out: t1/2, λz (converted)
  half-life: 1.9 h
female, human, po, 36 mg, single 36 mg oral solution, female fasted, read-out: tmax, median (min-max)
  Tmax: 1 h
[5]
  AUC(0-inf): 1.34 µg·h/mL
  Cmax: 0.65 µg/mL
female, human, po, 100 mg, single 100 mg oral solution, female fasted, read-out: AUC0-24 h
  AUC(0-t): 1.42 µg·h/mL
female, human, po, 100 mg, single 100 mg oral solution, female fasted, read-out: AUClast
  AUC(0-t): 1.46 µg·h/mL
female, human, po, 100 mg, single 100 mg oral solution, female fasted, read-out: t1/2, dom (converted)
  half-life: 1.6 h
female, human, po, 100 mg, single 100 mg oral solution, female fasted, read-out: t1/2, λz (converted)
  half-life: 11.6 h
female, human, po, 100 mg, single 100 mg oral solution, female fasted, read-out: tmax, median (min-max)
  Tmax: 0.5 h
[6]
  AUC(0-inf): 0.155 µg·h/mL
  Cmax: 0.0435 µg/mL
male, human, po, 4 mg, single 4 mg oral solution, male fasted, read-out: AUC0-24 h
  AUC(0-t): 0.157 µg·h/mL
male, human, po, 4 mg, single 4 mg oral solution, male fasted, read-out: AUClast
  AUC(0-t): 0.154 µg·h/mL
male, human, po, 4 mg, single 4 mg oral solution, male fasted, read-out: t1/2, dom (converted)
  half-life: 1.6 h
male, human, po, 4 mg, single 4 mg oral solution, male fasted, read-out: t1/2, λz (converted)
  half-life: 1.6 h
male, human, po, 4 mg, single 4 mg oral solution, male fasted, read-out: tmax, median (min-max)
  Tmax: 1 h
[7]
  AUC(0-inf): 0.317 µg·h/mL
  Cmax: 0.088 µg/mL
male, human, po, 12 mg, single 12 mg oral solution, male fasted, read-out: AUC0-24 h
  AUC(0-t): 0.319 µg·h/mL
male, human, po, 12 mg, single 12 mg oral solution, male fasted, read-out: AUClast
  AUC(0-t): 0.316 µg·h/mL
male, human, po, 12 mg, single 12 mg oral solution, male fasted, read-out: t1/2, dom (converted)
  half-life: 1.5 h

From patent US12622910B2, “Inhibitors of Bruton's tyrosine kinase and methods of their use” (Janssen Pharmaceutica NV, priority 2021, dated 2026)
